Assay results from ChEMBL document CHEMBL4842353, “Structure-activity relationship investigation for imidazopyrazole-3-carboxamide derivatives as novel selective inhibitors of Bruton's tyrosine kinase” (Eur J Med Chem, 2021).

Experiments:
[1] = in vivo; details: Sprague-Dawley, rat, iv, 1 mg/kg
[2] = in vivo; details: Sprague-Dawley, rat, po, 10 mg/kg
[3] = in vivo; details: Sprague-Dawley, rat, iv, 1 mg/kg; remark: listed apart in the source
[4] = in vivo; details: Sprague-Dawley, rat, po, 10 mg/kg; remark: listed apart in the source
[5] = in vivo; details: Sprague-Dawley, rat, iv, 1 mg/kg; remark: listed apart in the source
[6] = in vivo; details: Sprague-Dawley, rat, po, 10 mg/kg; remark: listed apart in the source
[7] = in vivo; details: Sprague-Dawley, rat, iv, 1 mg/kg; remark: listed apart in the source
[8] = in vivo; details: Sprague-Dawley, rat, po, 10 mg/kg; remark: listed apart in the source
[9] = in vivo; details: Sprague-Dawley, rat, iv, 1 mg/kg; remark: listed apart in the source
[10] = in vivo; details: Sprague-Dawley, rat, po, 10 mg/kg; remark: listed apart in the source
[11] = in vivo; details: Sprague-Dawley, rat, iv, 1 mg/kg; remark: listed apart in the source
[12] = in vivo; details: Sprague-Dawley, rat, po, 10 mg/kg; remark: listed apart in the source
[13] = in vivo; details: Sprague-Dawley, rat, iv, 1 mg/kg; remark: listed apart in the source
[14] = in vivo; details: Sprague-Dawley, rat, po, 10 mg/kg; remark: listed apart in the source
[15] = in vivo; details: Sprague-Dawley, rat, po, 10 mg/kg; remark: listed apart in the source

Tmax at 12 h [1]: 1.98 min
Tmax at 24 h [2]: 49.8 min
Cmax at 12 h [3]: 537 ng/mL
Cmax at 24 h [4]: 16 ng/mL
AUC(0-t) at 12 h [5]: 180 ng·h/mL
AUC(0-t) at 24 h [6]: 167 ng·h/mL
AUC(0-inf) at 12 h [7]: 198 ng·h/mL
AUC(0-inf) at 24 h [8]: 213 ng·h/mL
half-life at 12 h [9]: 141 min
half-life at 24 h [10]: 359 min
clearance at 12 h [11]: 85 mL/min/kg
CL/F at 24 h [12]: 786 mL/min/kg
MRT last at 12 h [13]: 2.19 h
MRT last at 24 h [14]: 10.2 h
bioavailability at 24 h [15]: 10.8%
Compound: CC#CC(=O)N1CCC(c2cnn3c(C(N)=O)c(-c4ccc(Oc5ccccc5)cc4)[nH]c23)CC1
